Test system: Female C57Bl/6 mice
Experiment: Pentobarbitone-induced sleeping in mice (Example 34)
Type: in vivo
Details: oral Brotizolam 0.25 mg/kg, 5 minutes before sleep induction; compared to control

With `Cc1nnc2n1-c1sc(Br)cc1C(c1ccccc1Cl)=NC2` [Oral Brotizolam, 8-bromo-6-(o-chlorophenyl)-1-methyl-4H-s-triazolo[3,4c]thieno[2,3e]1,4-diazepine] the “latency (onset of the loss of righting reflex)” value was “no significant effect” and the “total sleeping time (TST)” value was “no significant effect”.
